# Values quoted from earlier work as cited in patent publication US20060153823A1, “Compositions and methods for nutritional supplementation” (Everett Laboratories, Inc., priority 2005, published 2006).
# Assays:
# [1] = system: patients with ischemic heart disease
# [2] = system: patients with congestive heart failure
# [3] = system: patients with cardiomyopathy
# [4] = system: patients with hypertension
structure (smiles),measurement,setting,value
"COC1=C(OC)C(=O)C(C/C=C(\C)CC/C=C(\C)CC/C=C(\C)CC/C=C(\C)CC/C=C(\C)CC/C=C(\C)CC/C=C(\C)CC/C=C(\C)CC/C=C(\C)CCC=C(C)C)=C(C)C1=O [CoQ10, coenzyme Q10]",magnitude and rate of clinical improvement,[1],enhances both the magnitude and rate of clinical improvement
same,blood pressure,[2],reduce blood pressure
same,myocardial metabolic function,[2],improve myocardial metabolic function
same,myocardial thickness,[2],reduce myocardial thickness
same,cardiac function including ejection fraction and cardiac output,[3],significant improvement in cardiac function
same,blood pressure,[4],significantly reduce blood pressure
Nc1nc2ncc(CNc3ccc(C(=O)N[C@@H](CCC(=O)O)C(=O)O)cc3)nc2c(=O)[nH]1 [folic acid],levels and functioning of nitric oxide (NO),nitric oxide (NO),improves the levels and functioning
